Test system: participants with T1D
Experiment: Randomized crossover clinical trial (NCT04201496): CGM glycemic outcomes with 5 mg daily empagliflozin adjunctive to AID (Control-IQ, CIQ) or PLGS (Basal-IQ, BIQ)
Format: in vivo, human
Conditions: for Difference (95% CI): daytime glucose % Time in range of 70 to 180 mg/dL: adjusted for pre-randomization HbA1c
Method: FIG. 2 presents a study analysis relative to baseline, control IQ (CIQ) (e.g., AID), and basal IQ (BIQ) (e.g., PLGS) implementation, according to investigation that is demonstrable of one or more embodiments herein. Therein, an experimental arm (G1, G2) providing an initial daily dose of 5 mg empagliflozin (EMPA) is depicted against a control arm (G3, G4) without such dosing (NOEMPA). Relative characteristics of the analysis are provided below.
Study Design: A single-center, randomized, controlled, unblinded, crossover clinical trial (NCT04201496) compared four parallel groups, two groups in the experimental arm (EMPA) with 5 mg daily empagliflozin as adjunctive therapy to PLGS or AID, and two groups in the control arm (NOEMPA) with no drug and with a PLGS system (Basal-IQ, Tandem Diabetes Care) or AID system (Control-IQ, Tandem Diabetes Care). The groups within each arm differed from one another in the order of the randomly assigned crossover technological intervention, relative to PLGS being followed by AID or AID being followed by PLGS, respectively (FIG. 4). The study protocol was approved by the University of Virginia Institutional Review Board (IRB). An investigational device exemption (IDE), including an investigational new drug (IND) application for empagliflozin, was approved by the FDA. Safety aspects were overseen by an external data and safety monitoring board (DSMB). Participants: Major inclusion criteria were T1D treated with insulin for at least one year, use of continuous subcutaneous insulin infusion therapy for at least six months, age 18-65 yrs., no use of glucose lowering agents other than insulin, and Hb1Ac<9% (75 mmol/mol). Randomization: A (1:1:1:1) randomization assigned participants to either Group 1, AID-EMPA (4 weeks) followed by PLGS-EMPA (2 weeks), Group 2, PLGS-EMPA (2 weeks) followed by AID-EMPA (4 weeks), Group 3, AID-NOEMPA (4 weeks) followed by PLGS-NOEMPA (2 weeks), and Group 4, PLGS-NOEMPA (2 weeks) followed by AID-NOEMPA (4 weeks). Procedures: After confirmation of eligibility, participants underwent study equipment and medication training (experimental arm), or only study equipment training (control arm). Study equipment consisted of Dexcom G6® CGM (Dexcom Inc., San Diego, CA), Contour® Next blood glucose (Ascensia Diabetes Care, Basel, Switzerland) and Precision Xtra® blood ketone meters (Abbott, Alameda, CA) with their respective test strips; infusion sets, and the use of the t:slim X2™ insulin pump with Basal-IQ or Control-IQ technologies (Tandem Diabetes Care, San Diego, CA), according to randomization. […] Participants in the experimental arm were asked to record two days of baseline ketone values before initiating the use of the study drug. Thereafter, participants were directed to use the study CGM with EMPA for 1-2 weeks. A tolerance to the medication was assessed prior to the starting of the next study phase, including adherence to the protocol, ketone testing 2-4 times per day with monitored values not greater than 0.6 mmol/L on at least two successive occasions (the first testing upon waking in a fasted state), no adverse events relating to perineal infection or symptomatic postural hypotension, and no evidence of significant hypoglycemia <54 mg/dL, or any other listed adverse effects of the medication. Participants in the control arm were directed to use the study CGM for 1-2 weeks. Sample Size: The total sample size was projected to be 40 participants, assuming 1) 1:1:1:1 randomization; 2) 90% power and type 1 error a=0.01, further reinforcing the feasibility of hierarchical analyses. The projected recruitment sample was n=50, to accommodate up to 20% attrition rate without sacrificing statistical power. Analytical methods: For the primary analysis, TIR during the day in the 4-week AID period was compared between the two EMPA groups versus the two NOEMPA groups using a linear mixed-effects regression model while adjusting for pre-randomization HbAlc and age. […]

[1] = EMPA minus NOEMPA on same insulin system, adjusted for HbA1c
[2] = daytime (7:00-23:00), head prints CIQ-EMPA vs. BIQ-NOEMPA
[3] = daytime (7:00-23:00), CIQ-EMPA vs. BIQ-NOEMPA, BIQ-EMPA vs. CIQ-NOEMPA
[4] = daytime (7:00-23:00), CIQ-EMPA vs. CIQ-NOEMPA, BIQ-EMPA vs. BIQ-NOEMPA
[5] = daytime (7:00-23:00), n = 16, mean ± SD
[6] = daytime (7:00-23:00), n = 16, median (IQR)
[7] = overall, head prints CIQ-EMPA vs. BIQ-NOEMPA

OC[C@H]1O[C@@H](c2ccc(Cl)c(Cc3ccc(O[C@H]4CCOC4)cc3)c2)[C@H](O)[C@@H](O)[C@@H]1O [CIQ-EMPA, empagliflozin]
24/7 HBGI - median (IQR) (24/7, n = 17): 2.7(2-4.4) | 24/7 LBGI - median (IQR) (24/7, n = 17): 0.5(0.4-0.6) | 24/7 glucose level <70 mg/dL (<3.9 mmol/L) - median % time (IQR) (24/7, n = 17): 1.1(0.5-1.5) % | 24/7 glucose level <70 mg/dL (<3.9 mmol/L) - median % time (IQR) (24/7, n = 17, listed as AID-EMPA): 1.1(0.5-1.5) % | 24/7 Mean glucose level - (24/7, n = 17, mean ± SD): 137 ± 19 mg/dL | 24/7 Mean glucose level - (24/7, n = 17, mean ± SD, listed as AID-EMPA): 137 mg/dL | daytime TIR mean adjusted difference, amounting to hours per day (AID-EMPA vs AID-NOEMPA, daytime 7:00 to 23:00 h): 1.6 hours per day | Difference (95% CI): 24/7 HBGI [1]: −2.5(−5.3 to 0.2) | Difference (95% CI): 24/7 LBGI [1]: 0.06(−0.4 to 0.5) | Difference (95% CI): 24/7 Mean glucose level [1]: −17.3(−35.4 to 0.8) mg/dL | Difference (95% CI): 24/7 glucose level <70 mg/dL % time [1]: −1.1(−3.2 to 0.9) percentage points | Difference (95% CI): Daytime CGM CV [1]: −3.3(−6.1 to −0.5) % | Difference (95% CI): Daytime CGM SD [1]: −9.3(−17.8 to −0.93) mg/dL | Difference (95% CI): 24/7 glucose level <70 mg/dL % time (EMPA minus NOEMPA on same insulin system, adjusted for HbA1c, listed as AID-EMPA): −1.1 percentage points | Difference (95% CI): daytime glucose % Time in range of 70 to 180 mg/dL (EMPA minus NOEMPA on same insulin system): 9.9(0.6 to 19.1) percentage points | Difference (95% CI): daytime glucose % Time in range of 70 to 180 mg/dL (EMPA minus NOEMPA on same insulin system, listed as AID-EMPA): +9.9 percentage points | Primary: daytime glucose % Time in range of 70 to 180 mg/dL (3.9-10.0 mmol/L) (daytime 7:00 to 23:00 h, n = 17, mean ± SD): 81 ± 10% | Primary: daytime glucose % Time in range of 70 to 180 mg/dL (3.9-10.0 mmol/L) (daytime 7:00 to 23:00 h, n = 17, mean ± SD, listed as AID-EMPA): 81+10% | Difference (95% CI): % CGM time 70-140 mg/dL (<3.9-7.8 mmol/L) [2]: −1.4 percentage points | Difference (95% CI): % CGM time <60 mg/dL (<3.3 mmol/L) [2]: −0.5 percentage points | Difference (95% CI): % CGM time >180 mg/dL (>10.0 mmol/L) [2]: −0.8 percentage points | Difference (95% CI): % CGM time >250 mg/dL (>13.9 mmol/L) [2]: −1.6 percentage points | Difference (95% CI): % CGM time >300 mg/dL (>16.7 mmol/L) [2]: −0.9 percentage points | Difference (95% CI): CGM HBGI [2]: −6.3 | Difference (95% CI): CGM LBGI [2]: −0.3 | Difference (95% CI): Mean CGM glucose [2]: 0.2 mg/dL | Difference (95% CI): % CGM time <70 mg/dL (<3.9 mmol/L) (daytime (7:00-23:00), head prints CIQ-EMPA vs. BIQ-NOEMPA, listed as AID-EMPA): −1 percentage points | Difference (95% CI): % CGM time 70-140 mg/dL (<3.9-7.8 mmol/L) [3]: 16.2 percentage points | Difference (95% CI): % CGM time <60 mg/dL (<3.3 mmol/L) [3]: −0.6 percentage points | Difference (95% CI): % CGM time <70 mg/dL (<3.9 mmol/L) [3]: −0.7 percentage points | Difference (95% CI): % CGM time >180 mg/dL (>10.0 mmol/L) [3]: −17.6 percentage points | Difference (95% CI): % CGM time >250 mg/dL (>13.9 mmol/L) [3]: −9.2 percentage points | Difference (95% CI): % CGM time >300 mg/dL (>16.7 mmol/L) [3]: −3.6 percentage points | Difference (95% CI): CGM HBGI [3]: −4.4 | Difference (95% CI): CGM LBGI [3]: 0 | Difference (95% CI): CGM SD [3]: -15.5 mg/dL | Difference (95% CI): Mean CGM glucose [3]: -23.6 mg/dL | Difference (95% CI): % CGM time <50 mg/dL (<2.8 mmol/L) [4]: −0.2 percentage points | Difference (95% CI): % CGM time <60 mg/dL (<3.3 mmol/L) [4]: −0.7 percentage points | Difference (95% CI): % CGM time >180 mg/dL (>10.0 mmol/L) [4]: −10.3 percentage points | Difference (95% CI): % CGM time >250 mg/dL (>13.9 mmol/L) [4]: −3.8 percentage points | Difference (95% CI): % CGM time >300 mg/dL (>16.7 mmol/L) [4]: −1.3 percentage points | Difference (95% CI): CGM CV (%) [4]: −3.3% | Difference (95% CI): CGM HBGI [4]: −2.2 | Difference (95% CI): CGM LBGI [4]: 0 | Difference (95% CI): CGM SD [4]: -9.3 mg/dL | Difference (95% CI): Mean CGM glucose [4]: -14.6 mg/dL | % CGM time 70-140 mg/dL (3.9-7.8 mmol/L) [5]: 56.7 ± 13.4% | % CGM time 70-180 mg/dL (3.9-10.0 mmol/L) [5]: 80.6 ± 10.5% | CGM CV (%) [5]: 30.4 ± 3.5% | CGM SD [5]: 42.6 ± 9.7 mg/dL | Mean CGM glucose [5]: 139 ± 19 mg/dL | % CGM time <50 mg/dL (<2.8 mmol/L) [6]: 0(0-0.1) % | % CGM time <60 mg/dL (<3.3 mmol/L) [6]: 0.4(0-0.5) % | % CGM time <70 mg/dL (<3.9 mmol/L) [6]: 1.2(0.6-1.7) % | % CGM time >180 mg/dL (>10.0 mmol/L) [6]: 15.8(6.2-26) % | % CGM time >250 mg/dL (>13.9 mmol/L) [6]: 1.2(0.4-3.7) % | % CGM time >300 mg/dL (>16.7 mmol/L) [6]: 0(0-0.6) % | CGM HBGI [6]: 3.4(1.9-5.5) | CGM LBGI [6]: 0.5(0.4-0.6) | Daytime CGM CV - % (daytime, n = 17, mean ± SD): 30.4 ± 3.5% | Daytime CGM SD - (daytime, n = 17, mean ± SD): 42.6 ± 9.8 mg/dL | Difference: CGM HBGI [7]: −1.1 | Difference: CGM LBGI [7]: −0.3 | Difference: % CGM time <70 mg/dL (<3.9 mmol/L) (overall, head prints CIQ-EMPA vs. BIQ-NOEMPA, listed as AID-EMPA): −1.2 percentage points
